Each structure is given as a SMILES string. Some results are limits rather than exact numbers.

The target in this assay is T1, Caspase-1 (Homo sapiens) (UniProt P29466).
T1 sequence (whole entry): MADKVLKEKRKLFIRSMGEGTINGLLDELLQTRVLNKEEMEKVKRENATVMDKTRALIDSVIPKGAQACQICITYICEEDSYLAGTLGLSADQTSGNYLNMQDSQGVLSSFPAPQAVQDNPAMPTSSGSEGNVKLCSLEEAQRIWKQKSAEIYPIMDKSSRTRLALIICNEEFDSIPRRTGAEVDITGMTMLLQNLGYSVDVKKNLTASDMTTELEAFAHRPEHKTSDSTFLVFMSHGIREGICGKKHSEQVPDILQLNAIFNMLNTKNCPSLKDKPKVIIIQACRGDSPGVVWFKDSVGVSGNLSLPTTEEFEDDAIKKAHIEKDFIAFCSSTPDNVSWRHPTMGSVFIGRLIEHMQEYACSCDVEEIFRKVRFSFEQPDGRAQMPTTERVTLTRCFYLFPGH
The assay is described as follows: Inhibition constant against interleukin-1-beta converting enzyme.
Regarding `CC(C)[C@H](NC(=O)OCc1ccccc1)C(=O)N(C)[C@@H](C)C(=O)N[C@@H](CC(=O)O)C(=O)COc1cc(C(F)(F)F)nn1-c1ccccc1`, the K obs / 1 amounted to 233000 M⁻¹ s⁻¹.
For `CC(C)[C@H](NC(=O)OCc1ccccc1)C(=O)N[C@@H](C)C(=O)N(C)[C@@H](CC(=O)O)C(=O)COc1cc(C(F)(F)F)nn1-c1ccccc1` the value was below 300 M⁻¹ s⁻¹; for `CC(C)[C@@H](C(=O)N[C@@H](C)C(=O)N[C@@H](CC(=O)O)C(=O)COc1cc(C(F)(F)F)nn1-c1ccccc1)N(C)C(=O)OCc1ccccc1`, 8600 M⁻¹ s⁻¹.
Next, `CC(C)[C@H](NC(=O)OCc1ccccc1)C(=O)N1CC[C@H]1C(=O)N[C@@H](CC(=O)O)C(=O)COc1cc(C(F)(F)F)nn1-c1ccccc1`: 46200 M⁻¹ s⁻¹; `CC(C)[C@H](NC(=O)OCc1ccccc1)C(=O)N1CCC[C@H]1C(=O)N[C@@H](CC(=O)O)C(=O)COc1cc(C(F)(F)F)nn1-c1ccccc1`: 116000 M⁻¹ s⁻¹; `O=C(O)C[C@H](NC(=O)OCc1ccccc1)C(=O)COc1cc(C(F)(F)F)nn1-c1ccccc1`: 11000 M⁻¹ s⁻¹.
For `CC(C)[C@H](NC(=O)OCc1ccccc1)C(=O)N[C@@H](CC(=O)O)C(=O)COc1cc(C(F)(F)F)nn1-c1ccccc1`, the K obs / 1 was found to be 20000 M⁻¹ s⁻¹.

Source of the values: ChEMBL document CHEMBL1127733, “Aspartyl alpha-((1-phenyl-3-(trifluoromethyl)-pyrazol-5-yl)oxy)methyl ketones as interleukin-1 beta converting enzyme inhibitors. Significance of the P1 and P3 amido nitrogens for enzyme-peptide inhibitor binding” (J Med Chem, 1994).
